These results are taken from patent publication US5370997A, “Hyperthermostable alpha-amylase” (Novo Nordisk A/S, priority 1989, dated 1994).

Experiment [1] has as its target extracellular α-amylase from Pyrococcus furiosus (partially purified) (Pyrococcus furiosus, UniProt Q8U3I9). The conditions noted are these: EDTA concentration not given. The protocol:
In order to conduct physiochemical investigations the extracellular amylase was partially purified by gelfiltration. All experiments were performed in the absence of metal ions and under aerobic conditions.

The target in experiment [2] is α-amylase from Pyrococcus woesei (partially purified) (Pyrococcus woesei, UniProt Q7LYT7). The experiment can be described thus: biochemical. As to conditions: 40 min, pH 5.5, read-out: enzyme activity measured in percent. As for the experimental part: The influence of metal cations and EDTA on the activity of α-amylase from P. woesei was performed with enzyme which was partially purified by gelfiltration on a Supsrose 12 column (Pharmacia, Sweden), see Table 2. The fractions containing α-amylase were collected and concentrated 4-fold. 25 μl of enzyme (400 U/l) were added to 100 μl of sodium acetate buffer (50 mM, pH 5.5) containing 1% (w/v) starch. Metal cations, which were dissolved in sodium acetate buffer (100 mM, pH 5.5), were added in various concentrations. Incubation was conducted in a glycerin bath (100° C.) for 40 min. The reducing sugars were finally detected as described by Bergmeyer and Grassi (supra). The values represent the enzyme activity measured in percent.
Sequence of α-amylase from Pyrococcus woesei (partially purified) (Q7LYT7 26-460): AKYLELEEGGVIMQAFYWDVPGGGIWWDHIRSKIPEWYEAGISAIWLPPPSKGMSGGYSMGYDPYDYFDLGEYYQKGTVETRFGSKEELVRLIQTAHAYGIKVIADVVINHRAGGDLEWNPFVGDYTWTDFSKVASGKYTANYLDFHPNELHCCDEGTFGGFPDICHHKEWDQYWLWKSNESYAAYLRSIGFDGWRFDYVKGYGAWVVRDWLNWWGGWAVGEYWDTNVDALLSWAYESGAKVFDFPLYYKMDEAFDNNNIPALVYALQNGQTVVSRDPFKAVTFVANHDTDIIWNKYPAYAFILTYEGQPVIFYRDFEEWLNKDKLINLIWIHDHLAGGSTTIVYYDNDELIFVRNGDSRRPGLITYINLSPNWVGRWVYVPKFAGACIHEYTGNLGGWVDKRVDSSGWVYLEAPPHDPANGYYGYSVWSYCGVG

Sequence of extracellular α-amylase from Pyrococcus furiosus (partially purified) (Q8U3I9 39-473): as the sequence (Q7LYT7 26-460) above

`O=C(O)CN(CCN(CC(=O)O)CC(=O)O)CC(=O)O` [EDTA]: in experiment [1], the “influence on amylase activity” value is recorded as “did not have any influence”. For the same compound, in experiment [2], the remaining activity at 1000 µM came to 95%, the remaining activity at 2000 µM was found to be 85% and the remaining activity at 5000 µM was 60%.
